In patent publication US10881640B2, “Topical pharmaceutical compositions for treatment of pilonidal sinus wounds” (S.L.A. PHARMA AG, priority 2002, dated 2021):

Test system: ischemic ulcers
Test: Case report: ischemic ulcers (peripheral vascular disease)
Type: in vivo, human
Conditions: person, prior therapy before topical treatment
Excerpt: A person presents with chronic peripheral vascular disease and ischemic ulcers over the medial aspect of the hallux.

CC(=O)CCCCn1c(=O)c2c(ncn2C)n(C)c1=O [Trental]
healing: failed to improve healing
